Like-named read-outs stand apart in the source and are kept apart here.
Tests used:
[1] = target: T1, BuChE (equine serum lyophilized) (Equus caballus, UniProt P81908); test: biochemical; settings: triplicate; read-out: BChE IC50 (converted)
T1 construct: purchased Sigma-Aldrich (Taufkirchen, Germany); host or cells: equine serum
Protocol: (§1) Synthetic flavonoids F1–F5 previously synthesized by our group were used in the study.
(§2) For the determination of acetylcholinesterase inhibitory potentials, AChE and BuChE were used. […] To the tube were added DTNB (100 µL) and buffer (2.4 mL). The tube was incubated at 25 °C for 5 min as pre-incubation. The reaction was started by adding ATChI (40 µL), and the mixture was incubated at 25 °C for 20 min. The absorbance at 412 nm was measured spectrophotometrically in triplicate. […] The data were recorded in triplicate, and IC50 was calculated.

[2] = target: T2, AChE (electric eel type-VI-S) (Electrophorus electricus, UniProt O42275); test: biochemical; settings: 25 °C, triplicate
T2 construct: purchased Sigma-Aldrich (Taufkirchen, Germany)
T2 sequence (O42275 24-633): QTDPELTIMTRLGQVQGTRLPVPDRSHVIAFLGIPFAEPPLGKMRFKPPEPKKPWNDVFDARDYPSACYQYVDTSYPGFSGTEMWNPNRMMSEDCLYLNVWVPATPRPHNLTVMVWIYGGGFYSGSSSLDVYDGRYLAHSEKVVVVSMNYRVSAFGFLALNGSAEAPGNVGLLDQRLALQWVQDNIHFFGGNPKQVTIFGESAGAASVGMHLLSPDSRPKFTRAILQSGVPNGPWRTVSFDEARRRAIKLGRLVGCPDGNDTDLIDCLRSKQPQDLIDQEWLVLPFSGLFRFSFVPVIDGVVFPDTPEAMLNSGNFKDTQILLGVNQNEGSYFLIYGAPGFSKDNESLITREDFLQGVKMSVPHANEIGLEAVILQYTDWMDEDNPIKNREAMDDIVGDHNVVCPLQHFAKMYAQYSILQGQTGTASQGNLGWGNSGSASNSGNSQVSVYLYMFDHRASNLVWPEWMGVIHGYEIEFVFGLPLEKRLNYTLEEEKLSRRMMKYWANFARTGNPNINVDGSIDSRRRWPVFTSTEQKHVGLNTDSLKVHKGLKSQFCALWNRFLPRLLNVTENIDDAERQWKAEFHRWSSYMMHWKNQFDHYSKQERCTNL
Protocol: as §1, §2

[3] = test system: brains of scopolamine-induced amnesic mice; test: Antioxidant enzyme activities and oxidative stress markers in brain homogenate; type: in vivo, Balb/C mice
Protocol: (§3) The animals in the control (normal) and scopolamine amnesic groups were administered vehicle (Tween-80, 2%) only. Treated animals received F1–F5 suspended in Tween-80 (2%) p.o. at their respective doses for a period of 4 weeks. […] For assessing behavioral effects using the Y-Maze Paradigm and novel object discrimination (NOD) task, scopolamine (1 mg/kg, i.p.) was given to the different groups, 30 min after the respective treatments, to induce memory impairment (amnesia) in mice. All of the tests were performed between 8:00 a.m. and 6:00 p.m. to avoid sham results in the performance of the animals.
(§4) The brain was extracted, and a homogenate (10% w/v) in 0.1 M of phosphate buffer (pH 7.4) was prepared by centrifugation for the assessment of brain oxidative status and estimating brain acetylcholinesterase activity. Catalase (CAT), superoxide dismutase (SOD), glutathione (GSH) and level of lipid peroxidation (malondialdehyde, MDA) were quantified as oxidative stress markers.

[4] = test system: scopolamine-induced amnesic mice; test: Y-Maze Paradigm, spontaneous alternation in scopolamine-induced amnesic model; type: in vivo, Balb/C mice; settings: for Spontaneous Alternation Performance: scopolamine 1 mg/kg i.p., n = 8
Source text: (§5) For assessment of acute toxicity of the flavones (F1–F5), animals (21 in number) were divided into groups of 3 animals each. The reported protocols by Lorke were followed with slight modification to perform tests in two phases. In the first phase, one (control) group of animals were given Tween-80 (2%), and oral doses of F1–F5 were given to the remaining groups, respectively, at various doses (mg/kg body weight). […] The animals were housed in plastic cages. After two weeks, the animals were sacrificed by euthanasia with isoflurane in a humane manner for assessment of the effects on total weight and weight of the vital organs. The biochemical parameters of blood and histological studies of vital organs (kidney and liver tissue) were also assessed. […] The preliminary pharmacological activity was assessed at various dose concentrations of F1–F5 (2.5–20 mg/kg b.w.) to determine the effective dose for assessment of cognitive function using animal models.
as §3
(§6) Behavioral tasks on the Y-Maze Paradigm and “NOD” tasks were conducted in the 5th week of study to determine learning and memory functions. The apparatus arena was cleaned with 70% ethanol during the inter-trial interval to prevent a confounding error due to the influence of odor [20, 21].
The Y-Maze task is a non-invasive and reliable behavioral test that was used for memory assessment of spontaneous alternation for F1–F5 based on previously reported protocols. A single session of Y-Maze was used to record the spontaneous alternation behavior of the animals to determine exploratory behavior and instant memory functioning. The apparatus was made of three arms in a “Y” shape (35 cm × 8 cm × 15 cm) with an equilateral triangular central area. In brief, each of the mice, previously naive to the maze, was placed at the terminal end of one arm. The animals were allowed to move and explore freely for 8 min through the maze. The number of arm entries was noted. One arm entry was considered when the hind paws of the animal were completely placed inside the arm, and the series of arm entries were documented. The spontaneous alternation in percent was calculated.

Balb/C mice = test: Acute toxicity study; type: in vivo; settings: n = 3; for ALP / AST / Creatinine / Glucose / Total Cholesterol / Triglyceride: blood; for Kidney Weight / Liver Weight / Total Weight: mice
Source text: Two weeks before the experiment, the animals were acclimatized to laboratory conditions.
as §5

[5] = target: T3, brain acetylcholinesterase (Mus musculus, UniProt P21836); type: in vivo; parameters: unit not given here; settings: brain homogenate, n = 8
T3 construct: The brain was extracted, and a homogenate (10% w/v) in 0.1 M of phosphate buffer (pH 7.4) was prepared; from tissue; host or cells: mouse brain homogenate
T3 sequence (P21836 32-614): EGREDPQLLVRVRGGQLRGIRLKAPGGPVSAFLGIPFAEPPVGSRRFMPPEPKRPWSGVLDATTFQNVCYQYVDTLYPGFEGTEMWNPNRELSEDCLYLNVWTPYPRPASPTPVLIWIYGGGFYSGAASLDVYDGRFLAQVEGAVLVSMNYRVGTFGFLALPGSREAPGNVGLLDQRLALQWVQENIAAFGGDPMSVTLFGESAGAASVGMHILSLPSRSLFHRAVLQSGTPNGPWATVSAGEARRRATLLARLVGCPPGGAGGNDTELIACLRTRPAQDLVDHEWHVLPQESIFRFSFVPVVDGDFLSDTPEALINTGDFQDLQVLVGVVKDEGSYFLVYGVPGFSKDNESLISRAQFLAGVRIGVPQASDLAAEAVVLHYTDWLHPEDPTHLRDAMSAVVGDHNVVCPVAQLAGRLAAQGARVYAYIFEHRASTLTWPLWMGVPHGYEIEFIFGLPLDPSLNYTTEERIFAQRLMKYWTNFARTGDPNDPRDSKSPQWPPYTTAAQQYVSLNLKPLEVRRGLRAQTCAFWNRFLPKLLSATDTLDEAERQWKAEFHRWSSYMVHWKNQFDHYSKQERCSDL
Protocol: as §3, §4

[6] = test system: scopolamine-induced amnesic mice; test: Novel object discrimination (NOD) task in scopolamine-induced amnesic model; type: in vivo, Balb/C mice; settings: scopolamine 1 mg/kg i.p., n = 8
Protocol: as §3, §6
Animals were challenged for the novel object discrimination task for F1–F5 as per previously reported protocols. After habituation and acclimatization, animals in each group had two consecutive object exploration trials (5 min each) for this test, with a break of 4 h in between two trials. In the familiarization phase (sample), the animals were challenged to explore two objects similar to each other. In the second phase (test), any of the two objects was changed by a new object. Exploration time in sec for the objects, including chewing, licking, sniffing or pointing the vibrissae of nose towards the object, was recorded. The discrimination ratio (%DI) was then determined using:(T novel object − T familiar object)/(T novel object + T familiar object) × 100(1)

[7] = 7.5 mg/kg b.w., n = 8, 7.5 mg/kg

T1 sequence (P81908 whole entry): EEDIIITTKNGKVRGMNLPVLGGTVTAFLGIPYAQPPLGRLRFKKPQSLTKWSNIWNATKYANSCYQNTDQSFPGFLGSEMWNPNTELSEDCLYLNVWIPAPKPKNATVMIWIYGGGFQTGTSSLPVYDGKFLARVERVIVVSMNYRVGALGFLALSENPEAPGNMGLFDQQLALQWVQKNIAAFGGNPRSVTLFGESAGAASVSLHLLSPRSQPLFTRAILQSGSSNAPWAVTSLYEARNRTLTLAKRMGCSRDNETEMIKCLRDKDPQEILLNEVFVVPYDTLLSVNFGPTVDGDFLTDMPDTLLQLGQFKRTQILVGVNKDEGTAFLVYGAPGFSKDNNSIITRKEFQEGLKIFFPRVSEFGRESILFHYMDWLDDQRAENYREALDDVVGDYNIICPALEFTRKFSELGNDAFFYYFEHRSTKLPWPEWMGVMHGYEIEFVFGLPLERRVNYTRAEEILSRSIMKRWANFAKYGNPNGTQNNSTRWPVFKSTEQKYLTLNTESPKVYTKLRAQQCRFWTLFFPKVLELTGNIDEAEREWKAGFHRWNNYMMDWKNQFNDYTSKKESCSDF

O=c1cc(-c2ccc(Cl)c(Cl)c2)oc2ccccc12 [Compound F4]
IC50 [1]: 418 µM | IC50 [2]: 386 µM | CAT ([3]; 7.5 mg/kg b.w., n = 8): 22.21 ± 1.40 U/mg of Protein | GSH ([3]; 7.5 mg/kg b.w., n = 8): 36.21 ± 1.35 μg/mg of Protein | MDA ([3]; 7.5 mg/kg b.w., n = 8): 15.74 ± 1.21 nmol/mg Protein | SOD ([3]; 7.5 mg/kg b.w., n = 8): 9.30 ± 1.41 U/mg of Protein | CAT ([3]; 15 mg/kg b.w., n = 8): 23.39 ± 1.32 U/mg of Protein | GSH ([3]; 15 mg/kg b.w., n = 8): 38.30 ± 1.40 μg/mg of Protein | MDA ([3]; 15 mg/kg b.w., n = 8): 15.01 ± 1.37 nmol/mg Protein | SOD ([3]; 15 mg/kg b.w., n = 8): 9.71 ± 1.56 U/mg of Protein | Spontaneous Alternation Performance ([4]; 7.5 mg/kg b.w. p.o. 4 weeks): 57.92 ± 1.41 % | Spontaneous Alternation Performance ([4]; 15 mg/kg b.w. p.o. 4 weeks): 66.70 ± 1.63 %

O=c1cc(-c2cc(Cl)ccc2Cl)oc2ccccc12 [Compound F5]
ALP (Balb/C mice; 600 mg/kg b.w. oral): 134.41 ± 2.81 U/L | AST (Balb/C mice; 600 mg/kg b.w. oral): 108.37 ± 1.97 U/L | Creatinine (Balb/C mice; 600 mg/kg b.w. oral): 0.28 ± 0.04 mg/dL | Glucose (Balb/C mice; 600 mg/kg b.w. oral): 86.98 ± 2.12 mg/dL | Total Cholesterol (Balb/C mice; 600 mg/kg b.w. oral): 102.91 ± 1.93 mg/dL | Triglyceride (Balb/C mice; 600 mg/kg b.w. oral): 95.31 ± 2.61 mg/dL | Kidney Weight (Balb/C mice; 600 mg/kg b.w. oral): 0.30 ± 0.21 g | Liver Weight (Balb/C mice; 600 mg/kg b.w. oral): 1.24 ± 0.25 g | Total Weight (Balb/C mice; 600 mg/kg b.w. oral): 20.97 ± 1.66 g | ALP (Balb/C mice; 1000 mg/kg b.w. oral): 135.87 ± 2.24 U/L | AST (Balb/C mice; 1000 mg/kg b.w. oral): 107.41 ± 2.03 U/L | Creatinine (Balb/C mice; 1000 mg/kg b.w. oral): 0.35 ± 0.05 mg/dL | Glucose (Balb/C mice; 1000 mg/kg b.w. oral): 87.01 ± 2.21 mg/dL | Total Cholesterol (Balb/C mice; 1000 mg/kg b.w. oral): 103.02 ± 1.79 mg/dL | Triglyceride (Balb/C mice; 1000 mg/kg b.w. oral): 96.08 ± 2.01 mg/dL | Kidney Weight (Balb/C mice; 1000 mg/kg b.w. oral): 0.31 ± 0.24 g | Liver Weight (Balb/C mice; 1000 mg/kg b.w. oral): 1.22 ± 0.29 g | Total Weight (Balb/C mice; 1000 mg/kg b.w. oral): 21.88 ± 1.89 g | ALP (Balb/C mice; 2000 mg/kg b.w. oral): 133.91 ± 3.71 U/L | AST (Balb/C mice; 2000 mg/kg b.w. oral): 108.39 ± 1.89 U/L | Creatinine (Balb/C mice; 2000 mg/kg b.w. oral): 0.33 ± 0.06 mg/dL | Glucose (Balb/C mice; 2000 mg/kg b.w. oral): 86.89 ± 1.98 mg/dL | Total Cholesterol (Balb/C mice; 2000 mg/kg b.w. oral): 102.73 ± 2.10 mg/dL | Triglyceride (Balb/C mice; 2000 mg/kg b.w. oral): 95.37 ± 1.98 mg/dL | Kidney Weight (Balb/C mice; 2000 mg/kg b.w. oral): 0.29 ± 0.20 g | Liver Weight (Balb/C mice; 2000 mg/kg b.w. oral): 1.26 ± 0.21 g | Total Weight (Balb/C mice; 2000 mg/kg b.w. oral): 22.91 ± 1.67 g | ALP (Balb/C mice; 3000 mg/kg b.w. oral): 134.02 ± 3.28 U/L | AST (Balb/C mice; 3000 mg/kg b.w. oral): 107.76 ± 1.92 U/L | Creatinine (Balb/C mice; 3000 mg/kg b.w. oral): 0.30 ± 0.04 mg/dL | Glucose (Balb/C mice; 3000 mg/kg b.w. oral): 85.34 ± 2.01 mg/dL | Total Cholesterol (Balb/C mice; 3000 mg/kg b.w. oral): 103.09 ± 1.83 mg/dL | Triglyceride (Balb/C mice; 3000 mg/kg b.w. oral): 96.50 ± 2.05 mg/dL | Kidney Weight (Balb/C mice; 3000 mg/kg b.w. oral): 0.30 ± 0.19 g | Liver Weight (Balb/C mice; 3000 mg/kg b.w. oral): 1.23 ± 0.25 g | Total Weight (Balb/C mice; 3000 mg/kg b.w. oral): 22.65 ± 1.91 g | IC50 [1]: 376 µM | IC50 [2]: 338 µM | GSH ([3]; 7.5 mg/kg b.w., n = 8): 37.28 ± 1.60 μg/mg of Protein | MDA ([3]; 7.5 mg/kg b.w., n = 8): 14.98 ± 1.22 nmol/mg Protein | CAT [3, 7]: 24.18 ± 1.41 U/mg of Protein | SOD [3, 7]: 9.88 ± 1.49 U/mg of Protein | GSH ([3]; 15 mg/kg b.w., n = 8): 39.01 ± 1.39 μg/mg of Protein | MDA ([3]; 15 mg/kg b.w., n = 8): 14.48 ± 1.38 nmol/mg Protein | CAT ([3]; 15 mg/kg b.w., n = 8, 15 mg/kg): 24.91 ± 1.29 U/mg of Protein | SOD ([3]; 15 mg/kg b.w., n = 8, 15 mg/kg): 10.20 ± 1.62 U/mg of Protein | level of AChE ([5]; 7.5 mg/kg b.w.): 15.34 ± 0.69 | level of AChE ([5]; 15 mg/kg b.w.): 14.67 ± 0.67 | Spontaneous Alternation Performance ([4]; 7.5 mg/kg b.w. p.o. 4 weeks): 67.94 ± 1.51% | Spontaneous Alternation Performance ([4]; 15 mg/kg b.w. p.o. 4 weeks): 73.11 ± 1.63% | Spontaneous alternation performance (preliminary, selection of doses) ([4]; Table S1, dose 2.5 mg/kg b.w.): 38.63±1.78 | Spontaneous alternation performance (preliminary, selection of doses) ([4]; Table S1, dose 5 mg/kg b.w.): 43.87±1.94 | Spontaneous alternation performance (preliminary, selection of doses) ([4]; Table S1, dose 7.5 mg/kg b.w.): 66.53±1.89 | Spontaneous alternation performance (preliminary, selection of doses) ([4]; Table S1, dose 10 mg/kg b.w.): 66.97±1.72 | Spontaneous alternation performance (preliminary, selection of doses) ([4]; Table S1, dose 12.5 mg/kg b.w.): 67.33±2.05 | discrimination index (%DI) ([6]; 7.5 mg/kg b.w. p.o. 4 weeks): 59.76 ± 1.24% | discrimination index (%DI) ([6]; 15 mg/kg b.w. p.o. 4 weeks): 62.12 ± 1.28%
